Results as given in patent US20070213301A1 (ACHILLION PHARMACEUTICALS, INC., priority 2006, published 2007).

System: HCV replicon
Assay: HCV replicon replication assay (NPTII ELISA)
Type: cell-based, Hepatitis C virus (Huh-7 cells)
Details: Hepatitis C virus, Huh-7, 72 h, inhibition of HCV replicon replication in Huh-7 HCV replicon-containing cells, three days incubation, NPT level by ELISA; read-out: EC50
Summary of the method: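 Huh-7 cells carrying a Bartenschlager NPTII (neo) HCV replicon, treated 3 days at 37 °C with compound, generally 6 concentrations from 10 to 0.03 micromolar, in equal DMSO across wells. NPTII level, proportional to replication, read by capture ELISA on methanol:acetone-fixed cells; interferon alpha positive control; toxicity scored visually or by MTS.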

Row | SMILES | EC50
1 | CCCCCOc1ccc(N(C(=O)C2CC2)c2nc(-c3cccnc3)cs2)cc1C(F)(F)F [Compound 15, N-(4-(pentyloxy)-3-(trifluoromethyl)phenyl)-N-(4-(pyridin-3-yl)thiazol-2-yl)cyclopropanecarboxamide] | < 1 µM
2 | CCCCCOc1ccc(N(C(N)=O)c2nc(-c3ccc(F)cc3)cs2)cc1C(F)(F)F [Compound 69, 1-(4-(4-fluorophenyl)thiazol-2-yl)-1-(4-(pentyloxy)-3-(trifluoromethyl)phenyl)urea] | < 1 µM
3 | CCCCCOc1ccc(N(C=O)c2nc(-c3cccnc3)cs2)cc1C(F)(F)F [Compound 50, N-(4-(pentyloxy)-3-(trifluoromethyl)phenyl)-N-(4-(pyridin-3-yl)thiazol-2-yl)formamide] | < 1 µM
4 | CCCCCCCCc1ccc(N(C(=O)OCCN(C)C)c2nc(-c3cccnc3)c(F)s2)cc1C(F)(F)F [Compound 179, 2-(dimethylamino)ethyl 5-fluoro-4-(pyridin-3-yl)thiazol-2-yl(4-octyl-3-(trifluoromethyl)phenyl)carbamate] | < 1 µM
5 | CCCCCCCCOc1ccc(N(C(=O)c2cc(C)on2)c2nc(-c3ccc(Cl)s3)cs2)cc1 [Compound 89, N-(4-(5-chlorothiophen-2-yl)thiazol-2-yl)-5-methyl-N-(4-(octyloxy)phenyl)isoxazole-3-carboxamide] | < 1 µM
6 | CCCCCCCCOc1ccc(N(C(=O)COC(C)=O)c2nc(-c3cccnc3)cs2)cc1 [Compound 67, 2-((4-(octyloxy)phenyl)(4-(pyridin-3-yl)thiazol-2-yl)amino)-2-oxoethyl acetate] | < 1 µM
7 | CCCCCOc1ccc(N(C(=O)C(=O)OC)c2nc(CN(C)C)cs2)cc1C(F)(F)F [Compound 23, methyl 2-((4-((dimethylamino)methyl)thiazol-2-yl)(4-(pentyloxy)-3-(trifluoromethyl)phenyl)amino)-2-oxoacetate] | 1 to 10 µM
8 | CCCCCN(C)c1ccc(N(C(N)=O)c2nc(-c3ccc(C)nc3)cs2)cc1C(F)(F)F [Compound 139, 1-(4-(methyl(pentyl)amino)-3-(trifluoromethyl)phenyl)-1-(4-(6-methylpyridin-3-yl)thiazol-2-yl)urea] | < 1 µM
9 | CCCCCCCOc1ccc(N(C(N)=O)c2nc(-c3ccc(F)cc3)cs2)cc1 [Compound 71, 1-(4-(4-fluorophenyl)thiazol-2-yl)-1-(4-(heptyloxy)phenyl)urea] | < 1 µM
10 | CCCCCOc1ccc(N(C(N)=O)c2nc(-c3ccc(O)c(C(N)=O)c3)cs2)cc1F [Compound 109, 5-(2-(1-(3-fluoro-4-(pentyloxy)phenyl)ureido)thiazol-4-yl)-2-hydroxybenzamide] | 1 to 10 µM
11 | CCCCCOc1ccc(N(C(N)=O)c2nc(-c3ccc4c(c3)NC(=O)CO4)cs2)cc1F [Compound 110, 1-(3-fluoro-4-(pentyloxy)phenyl)-1-(4-(3-oxo-3,4-dihydro-2H-benzo[b][1,4]oxazin-6-yl)thiazol-2-yl)urea] | > 10 µM
12 | CCCCCCCCc1ccc(N(C(=O)C(=O)OC)c2nc(-c3cccnc3)cs2)cc1 [Compound 39, methyl 2-((4-octylphenyl)(4-(pyridin-3-yl)thiazol-2-yl)amino)-2-oxoacetate] | < 1 µM
13 | CCCCCCCCc1ccc(N(C(=O)CN(C)C)c2nc(-c3cccnc3)c(F)s2)cc1C(F)(F)F [Compound 170, 2-(dimethylamino)-N-(5-fluoro-4-(pyridin-3-yl)thiazol-2-yl)-N-(4-octyl-3-(trifluoromethyl)phenyl)acetamide] | < 1 µM
14 | CCCCCCCCc1ccc(N(C(=O)[C@@H](N)C(C)C)c2nc(-c3ccc(O)nc3)cs2)cc1C(F)(F)F [Compound 157, (S)-2-amino-N-(4-(6-hydroxypyridin-3-yl)thiazol-2-yl)-3-methyl-N-(4-octyl-3-(trifluoromethyl)phenyl)butanamide] | 1 to 10 µM
15 | CCCCCOc1ccc(N(C(C)=O)c2nc(-c3cccnc3)cs2)cc1C(F)(F)F [Compound 12, N-(4-(pentyloxy)-3-(trifluoromethyl)phenyl)-N-(4-(pyridin-3-yl)thiazol-2-yl)acetamide] | < 1 µM
